Results as given in patent publication EP3884956A1, “METHODS FOR PRODUCING HEME PEROXIDASES” (Technische Universität Wien, priority 2020, dated 2021).
Numbering of substitutions follows the chain as printed.

What was measured:
Test in all cases: Enzyme kinetic parameters, 96-well plate assay
Assay type in all cases: biochemical
[1] = target: T1, plant-derived HRP (pHRP; Plant HRP Type VI-A, horseradish peroxidase) (Armoracia rusticana, UniProt P00433); conditions: Table 19; ABTS 0.1 - 7 mM, 1 mM hydrogen peroxide, 50 mM phosphate-citrate buffer pH 5, 30 °C
T1 sequence (P00433 31-338): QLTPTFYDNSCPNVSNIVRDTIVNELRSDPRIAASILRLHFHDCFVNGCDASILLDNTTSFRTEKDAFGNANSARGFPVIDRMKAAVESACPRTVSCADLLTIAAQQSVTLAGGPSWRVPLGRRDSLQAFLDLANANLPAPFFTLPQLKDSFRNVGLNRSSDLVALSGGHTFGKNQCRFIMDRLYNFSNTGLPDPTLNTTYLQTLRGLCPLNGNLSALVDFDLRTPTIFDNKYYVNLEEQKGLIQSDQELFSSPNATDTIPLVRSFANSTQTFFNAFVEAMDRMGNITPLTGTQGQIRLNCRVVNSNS
Experimental: (§1) Plant HRP Type VI-A (Cat. No.: P6782) was obtained from Sigma-Aldrich (St. Louis, MO, USA). All HRP variants produced in E. coli consisted of the sequence as set forth in SEQ ID NO: 2 with the indicated mutations unless specified otherwise.
(§2) For measurements with 3,3',5,5'-tetramethylbenzidine (TMB) as substrate, the reaction mixture in each well of the 96-well plate contained a saturating hydrogen peroxide concentration of 1 mM and varying TMB concentrations (20 - 550 µM) in 50 mM phosphate-citrate buffer pH 5 in a final volume of 200 µL. Protein sample (5 µL) was mixed with 175 µl TMB-buffer mixture and the reaction was started with 20 µl hydrogen peroxide solution (10 mM). The increase in absorption was followed at 652 nm for 60s at 30 °C in a Tecan Infinite M200 PRO instrument. The kinetic parameters were calculated using Sigma Plot software (Systat Software INC., San Jose, CA, USA) and an extinction coefficient of ε652 = 39 mM^-1 cm^-1 (see Josephy, et al. "The horseradish peroxidase-catalyzed oxidation of 3, 5, 3', 5'-tetramethylbenzidine. Free radical and charge-transfer complex intermediates." Journal of Biological Chemistry 257.7 (1982): 3669-3675).
(§3) The increase in absorption was followed at 420 nm for 120 s at 30 °C in a Tecan Infinite M200 PRO instrument. The kinetic parameters were calculated using Sigma Plot software (Systat Software INC., San Jose, CA, USA) and an extinction coefficient of ε420 = 36 mM^-1 cm^-1 (see Childs and Bardsley. "The steady-state kinetics of peroxidase with 2, 2'-azino-di-(3-ethyl-benzthiazoline-6-sulphonic acid) as chromogen." Biochemical Journal 145.1 (1975): 93-103).

[2] = target: T2, horseradish peroxidase variant HRP N13D/N57S/P146Q/N175S/N255D/N268D/N275K (mHRP, SEQ ID NO: 4) (Armoracia rusticana, UniProt P00433, N205S/N285D/N298D/N305K/N43D/N87S/P176Q); conditions: 50 mM phosphate-citrate buffer pH 5, 30 °C; for Vmax (substrate ABTS): ABTS 0.1 - 7 mM, 1 mM hydrogen peroxide
T2 sequence (P00433 31-338 N43D/N87S/P176Q/N205S/N285D/N298D/N305K): T1 sequence (P00433 31-338) with N13D, N57S, P146Q, N175S, N255D, N268D, N275K
Experimental: as §1, §2, §3, §3

[3] = target: T3, horseradish peroxidase variant HRP N13D/N57S/N175S/N255D/N268D (Armoracia rusticana, UniProt P00433, N205S/N285D/N298D/N43D/N87S); conditions: 50 mM phosphate-citrate buffer pH 5, 30 °C
T3 sequence (P00433 31-338 N43D/N87S/N205S/N285D/N298D): T1 sequence (P00433 31-338) with N13D, N57S, N175S, N255D, N268D
Experimental: as §1, §2, §3, §3

[4] = target: T4, wild-type HRP (rHRP, horseradish peroxidase variant C1A, SEQ ID NO: 2) (Armoracia rusticana, UniProt P00433); conditions: Table 20; TMB 20 - 550 µM, 1 mM hydrogen peroxide, 50 mM phosphate-citrate buffer pH 5, 30 °C
T4 sequence (P00433 31-338): T1 sequence (P00433 31-338)
Experimental: as §1, §2, §3

[5] = Table 17, hydrogen peroxide 0.001 - 1 mM, 10 mM ABTS
[6] = Table 17, hydrogen peroxide 0.001 - 1 mM, 10 mM ABTS, read-out: Km (substrate H2O2)

With `CCn1c(=NN=c2sc3cc(S(=O)(=O)O)ccc3n2CC)sc2cc(S(=O)(=O)O)ccc21` [ABTS, 2,2'-azino-bis(3-ethylbenzothiazoline-6-sulfonic acid)] the “Vmax (substrate ABTS)” value [1] was 1285 ± 70 U/mg, the “Vmax (substrate ABTS)” value ([2]; Table 18) was 1214 ± 98 U/mg and the “Vmax (substrate ABTS)” value ([2]; Table 19) was 1203 ± 96 U/mg. For the same compound, the “Vmax (substrate ABTS)” value ([3]; Table 18, ABTS 0.1 - 7 mM, 1 mM hydrogen peroxide) was 1224 ± 115 U/mg.
`OO` [H2O2, hydrogen peroxide] was tested, and the “Vmax (substrate H2O2)” value [2, 5] was 2337 ± 38 U/mg, the “kcat (substrate H2O2)” value [2, 5] was 1344 ± 22 s⁻¹ and the Km [2, 6] was 171 ± 9 µM. For the same compound, the “Vmax (substrate H2O2)” value [3, 5] was 2003 ± 14 U/mg, the “kcat (substrate H2O2)” value [3, 5] was 1152 ± 8.3 s⁻¹ and the Km [3, 6] was 174 ± 4 µM.
`Cc1cc(-c2cc(C)c(N)c(C)c2)cc(C)c1N` [TMB, 3,3',5,5'-tetramethylbenzidine] was tested, and the “Vmax (substrate TMB)” value [4] was 7146 ± 355 U/mg and the “kcat (substrate TMB)” value [4] was 4169 ± 207 s⁻¹.
